{
  "source": "patent US9782366B2",
  "about": "“Drug for killing acid-fast (red) bacillus” (priority 2013, dated 2017)",
  "key": {"[1]": {"test": "Change of urine pH with time after taking basic fuchsine", "format": "in vivo, human", "conditions": "for Urine pH value, Average: average of 9 patients, before drug 6; for Patent's urine pH value: individual patient (vegetarian), hydrochloride", "description": "Therefore, the infected body, which is weakly acidic, is recovered to become weakly basic and this is beneficial to increasing the body's immunity such that Mycobacterium tuberculosis can be inhibited or removed. Because the integration of lysosomes inside macrophage with phagosome cannot be prevented, the bacteria can be removed. The changes in urine pH after taking basic fuchsine is illustrated in Table 2 and FIG. 1:\nRemarks: The urine pH value reached the peak value at 2-3 hours after taking drug, and the peak period can sustain for 3-4 hours, then return to normal at 5-6 hours after taking drug."}, "M. tuberculosis": {"system": "M. tuberculosis", "test": "Basic Fuchsine for treatment of Tuberculosis (patients)", "format": "in vivo, human", "conditions": "for Drug treatment after 1 month (TB status, symptoms): individual TB patient, capsule 500 mg (basic fuchsine:ground rice 3:2), 1-2 capsule/day oral, hydrochloride", "description": "Basic Fuchsine for treatment of Tuberculosis\nDosage for patient: Capsule, 500 mg/capsule, where the weight ratio of basic fuchsine to ground rice is 3:2, each patient takes 1˜2 capsule/day.\nMethod of administration: Every morning, before breakfast, take the capsule, three month as one treatment course, see Table 5 for patients' records, see Table 6 for treatment results.\n1. All patients were diagnosis and confirmed by standard TB hospital or TB prevention and treatment center, and all patients encountered disease recurrence after conventional standard drug treatment.\n3. Before drug treatment with basic fuchsine drug, all patients have obvious symptoms: body weakness, discomfort, fever, cough, night sweat, ascites, blood spitting, blood vomiting, etc. (skeletal TB patient experience pain, some experience amenorrhea)."}, "[2]": {"test": "Toxicity Test of Basic Fuchsine in guinea pigs", "conditions": "guinea pigs, 8, 6 and 4 mg/kg body weight/d, once per day, 21 days", "text": "Materials: 24 white guinea pigs, purchased from Shenyang Pharmaceutical University, regular feeding; Basic fuchsine, from Tianjin Ju Hua Chemical Company Limited.\nMatching and grouping of experimental animals: randomly divided into 4 groups (each group includes 6 counts, equal number of male and female), namely, control, high, medium, low fuchsine dosage group.\nMethod of administration: For each guinea pig, administered one time per day at a fixed time in the morning, the dosage for high, medium, low fuchsine dosage group are 8 mg/kg body weight/d, 6 mg/kg body weight/d, and 4 mg/kg body weight/d respectively; the drug administration period is 21 days, observe 3˜4 times per day, observe the guinea pig by spirit condition, appetite, gloss level of skin and hairs, physical condition, alertness and ability to escape."}, "Leprosy ulcers": {"system": "Leprosy ulcers", "test": "Basic Fuchsine for Treatment of Leprosy (patients)", "format": "in vivo, human", "conditions": "individual leprosy ulcer patient, treatment method External"}, "blood cells": {"system": "blood cells", "conditions": "human, in vivo, po", "text": "After taking basic fuchsine, the basic fuchsine activity over time can be observed through the blood phenomenon at different times.\nHealthy individual as normal subject for observation\nPatient recovered from the disease who volunteer to testing subject as volunteer subject\nBinocular microscope xsp-12G model\nWright-Giemsa stain solution (available in the market)\nPhosphate buffer (available in the market)\nObtain peripheral blood smear from normal subject and volunteer subject (normal control blood film, standby use)\nObtain peripheral blood smear from volunteer subject at different time after taking fuchsine (oral fuchsine blood film, standby use)\nAfter the last blood sampling is complete, carrying staining together with the blood film before taking fuchsine orally of volunteer subject and the peripheral blood film of normal subject\nV. observe oral fuchsine blood film under microscope with 100× objective lens (oil immersion) and 12.5× eyepiece, real object is viewed under magnification at 1250 times and the results are shown in Table 3."}, "[3]": {"system": "Mycobacterium tuberculosis", "test": "Drug Susceptibility Testing on Lowenstein-Jensen medium", "format": "cell-based", "description": "Drug Susceptibility Testing\n(II) Culture Method: Lowenstein-Jensen medium (Improved method)\nKH2PO4: 2.4 g; MgSO4.7H2O 0.24 g; magnesium citrate: 0.6 g; asparagine: 3.6 g; glycerin: 12 ml; distilled water: 600 ml; potato starch: 30 g; fresh whole egg liquid: 1000 ml; 2% malachite green solution: 20 ml\n4. Drug: 2% basic fuchsine aqueous solution: 100 ml\nAdd water to KH2PO4, MgSO4.7H2O, magnesium citrate, asparagine and glycerin, dissolve through heating in a boiling water bath, then add potato starch and continue heating in water bath for 30 minutes, stir continuously to form a uniform paste. After cooling to about 60° C., add 1000 ml fresh whole egg liquid and 20 ml 2% malachite green solution, mix thoroughly and then filter by double-layered gauze, then dispensed into test tube with screw cap. 7 ml of the prepared solution is added to each test tube, then add the 2% basic fuchsine solution according to a specific proportion into the test tube (see Table 3 for the adding amount), then place the test tube into the 85% steam incubator for 90 minutes, cooling to 60° C. or below and then place the test tube inclinedly into the biological safety cabinet (also called purification station), thereby the culture medium is cooled to solidify and form an incline surface. Put 10^−2/ml living bacilli solution of Mycobacterium tuberculosis to the incline surface of the culture medium. The living bacilli solution for each tube is 0.1 ml. The concentration of bacilli solution in the culture medium is 10^−3 mg/ml. Place in Digital Biochemical Incubator to culture. After culture for 5 weeks, no bacteria growth refers to drug susceptibility, continue bacteria growth refers to drug non-susceptibility (See Table 4 for testing results)."}},
  "note": "Where “and” joins values, the source holds several entries; their conditions need not be identical. Equal values may be shown once. Entries after “also recorded” stand apart in the source; their conditions may differ. Where a name gives a salt, the structure may show the parent alone.",
  "data": [
    {"smiles": "Cc1cc(C(=C2C=CC(=N)C=C2)c2ccc(N)cc2)ccc1N", "note": "[basic fuchsine, rosaniline hydrochloride]", "values": [
      {"measurement": "Time at which urine pH value reached the peak value", "setting": "[1]; after taking drug", "result": "2-3 hours"},
      {"measurement": "Time of return of urine pH to normal", "setting": "[1]; after taking drug", "result": "5-6 hours"},
      {"measurement": "Time the urine pH peak period can sustain", "setting": "[1]; after taking drug", "result": "3-4 hours"},
      {"measurement": "Urine pH value, Average", "setting": "[1]; After drug 1 h", "result": 6.5},
      {"measurement": "Urine pH value, Average", "setting": "[1]; After drug 2 h", "result": 7},
      {"measurement": "Urine pH value, Average", "setting": "[1]; After drug 3 h", "result": 6.5},
      {"measurement": "Urine pH value, Average", "setting": "[1]; After drug 4 h", "result": 6.5},
      {"measurement": "Urine pH value, Average", "setting": "[1]; After drug 5 h", "result": 6},
      {"measurement": "Urine pH value, Average", "setting": "[1]; After drug 6 h", "result": 6},
      {"measurement": "Patent's urine pH value", "setting": "[1]; After drug 1 h", "result": "6 (2×) and 6.5 (5×) and 7 (2×)"},
      {"measurement": "Patent's urine pH value", "setting": "[1]; After drug 2 h", "result": "6.5 (2×) and 7 (5×) and 7.5 (2×)"},
      {"measurement": "Patent's urine pH value", "setting": "[1]; After drug 3 h", "result": "6 (2×) and 6.5 (5×) and 7 (2×)"},
      {"measurement": "Patent's urine pH value", "setting": "[1]; After drug 4 h", "result": "6 (2×) and 6.5 (5×) and 7 (2×)"},
      {"measurement": "Patent's urine pH value", "setting": "[1]; After drug 5 h", "result": "5.5 (2×) and 6 (5×) and 6.5 (2×)"},
      {"measurement": "Patent's urine pH value", "setting": "[1]; After drug 6 h", "result": "5.5 (2×) and 6 (5×) and 6.5 (2×)"},
      {"measurement": "M. tuberculosis (acid-fast bacilli) in sputum after taking basic fuchsine for one month", "setting": "M. tuberculosis; TB patients", "result": "no M. tuberculosis is found in sputum"},
      {"measurement": "Patients' blood test for liver and kidney after taking basic fuchsine", "setting": "M. tuberculosis; TB patients", "result": "normal"},
      {"measurement": "TB symptoms after taking basic fuchsine for three months", "setting": "M. tuberculosis; TB patients", "result": "TB symptoms are eliminated"},
      {"measurement": "X-ray after taking basic fuchsine for six months", "setting": "M. tuberculosis; TB patients", "result": "recovery are confirmed through X-ray"},
      {"measurement": "Adverse reactions / side effect during the course of treatment", "setting": "M. tuberculosis; all cases", "result": "no side effect is observed in all cases"},
      {"measurement": "Drug treatment after 1 month (TB status, symptoms)", "setting": "M. tuberculosis; 1 capsule/day", "result": "TB Improved (−); also recorded: Improved TB (−)"},
      {"measurement": "Drug treatment after 1 month (TB status, symptoms)", "setting": "M. tuberculosis; 2 capsule/day", "result": "Pain reduced"},
      {"measurement": "Symptoms after taking basic fuchsine for one month", "setting": "M. tuberculosis; majority of TB patients", "result": "Symptoms are significantly reduces"},
      {"measurement": "Liver or kidney damage", "setting": "M. tuberculosis; patients taking drug for more than two years", "result": "no liver or kidney damages is observed"},
      {"measurement": "Recurrence", "setting": "M. tuberculosis; patients who are recovered", "result": "no single occurrence of recurrence"},
      {"measurement": "Observation of spirit condition, appetite, skin and hairs, physical condition, alertness, ability to escape", "setting": "[2]", "result": "No changes is observed"},
      {"measurement": "Remarks (outcome)", "setting": "Leprosy ulcers", "result": "Absorbed,"},
      {"measurement": "Time remained inside the cell after absorption into blood", "setting": "blood cells", "result": "2 to 4", "unit": "h"},
      {"measurement": "Testing results (bacteria growth)", "setting": "[3]; Tube 1, 0.7 ml 2% basic fuchsine solution, final dilution factor 500, 5 weeks at 36 C", "result": "Grow"},
      {"measurement": "Testing results (bacteria growth)", "setting": "[3]; Tube 2, 0.525 ml 2% basic fuchsine solution, final dilution factor 750, 5 weeks at 36 C", "result": "Grow"},
      {"measurement": "Testing results (bacteria growth)", "setting": "[3]; Tube 3, 0.35 ml 2% basic fuchsine solution, final dilution factor 1000, 5 weeks at 36 C", "result": "Grow"}
    ]}
  ]
}
